A value given as a limit tells only on which side of the number the result lay.

In one experiment the target is T1, BTK (Homo sapiens, UniProt Q06187).
T1 construct: purchased Promega Corporation
Nature of the experiment: ADP-Glo + BTK Kinase enzyme system kit, inhibitory activity against BTK. Format: biochemical. The note with it: BTK enzyme 1 ng/ul, ATP 10 μM, 30° C. for 1 hour, luminescence, duplicate. On the procedure: (§1) Inhibitory activities against BTK and ITK were measured for the compounds prepared in the above Examples as follows.
The inhibitory activities against BTK were evaluated using ‘ADP-Glo™+BTK Kinase enzyme system’ kit (Promega Corporation). In a white 96-well plate, 10 ul of BTK enzyme prepared so as to have a final concentration of 1 ng/ul was mixed with 5 μl of compounds having a final concentration of […] the case of evaluating a single concentration of compound and a concentration of 1000, 300, 100, 30, 10, 3, 1, 0.3, 0.1 and 0.03 nM in the case of IC50 evaluation, and then reacted at room temperature for 15 minutes. 5 ul of substrate and 5 ul of ATP prepared so as to have a final concentration of 10 μM were added to the plate on which reactions were completed, and then allowed to react at 30° C. for 1 hour. All wells of the plate were treated with 25 ul of ADP-Glo™ reagent and allowed to react at 30° C. for 40 minutes. After that, all wells were treated with 50 ul of kinase detection buffer, and then reacted at 30° C. for 30 minutes under light shielding conditions. For the plate on which all reactions were completed, luminescence was measured and the results were calculated. Evaluation was carried out in duplicate, and negative control and positive control were calculated depending on whether or not the enzyme was added without treatment of the compound. The IC50 was calculated based on the calculated values.

For another experiment, the target named is T2, ITK (Homo sapiens, UniProt Q08881).
T2 construct: purchased Promega Corporation
T2 sequence (Q08881 1-620): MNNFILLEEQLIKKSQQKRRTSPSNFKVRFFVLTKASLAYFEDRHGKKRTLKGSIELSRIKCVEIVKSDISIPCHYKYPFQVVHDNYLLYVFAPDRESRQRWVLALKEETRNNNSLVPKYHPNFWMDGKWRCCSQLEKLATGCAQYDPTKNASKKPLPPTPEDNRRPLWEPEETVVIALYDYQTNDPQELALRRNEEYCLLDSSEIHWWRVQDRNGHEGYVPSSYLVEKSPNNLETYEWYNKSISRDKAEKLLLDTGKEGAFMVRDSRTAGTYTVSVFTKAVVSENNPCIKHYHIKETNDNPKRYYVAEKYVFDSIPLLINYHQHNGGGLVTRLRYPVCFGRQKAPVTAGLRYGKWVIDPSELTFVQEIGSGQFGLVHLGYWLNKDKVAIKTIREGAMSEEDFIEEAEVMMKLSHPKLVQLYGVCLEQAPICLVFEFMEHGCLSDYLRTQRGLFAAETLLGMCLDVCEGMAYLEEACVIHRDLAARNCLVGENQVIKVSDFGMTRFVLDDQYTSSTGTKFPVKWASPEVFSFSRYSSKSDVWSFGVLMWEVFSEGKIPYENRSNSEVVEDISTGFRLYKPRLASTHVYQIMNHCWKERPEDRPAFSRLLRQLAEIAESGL
Put plainly: ADP-Glo + ITK Kinase enzyme system kit, inhibitory activity against ITK. It is filed as biochemical. As to conditions: ITK enzyme 0.4 ng/ul, ATP final concentration of 25 ul, 30° C. for 1 hour, luminescence, duplicate. On the procedure:
as §1
The inhibitory activity against ITK was evaluated using ‘ADP-Glo™+ITK Kinase enzyme system’ kit (Promega Corporation). In a white 96-well plate, 10 ul of ITK enzyme prepared so as to have a final concentration of 0.4 ng/ul was mixed with 5 ul of compounds having a final concentration of 1 uM in the case of evaluating a single concentration of compound and a concentration of 1000, 300, 100, 30, 10, 3, 1, 0.3, 0.1 and 0.03 nM in the case of IC50 evaluation, and then reacted at room temperature for 15 minutes. To the plate on which reactions were completed, 5 ul of substrate and 5 ul of ATP prepared so as to have a final concentration of […] added and then allowed to react at 30° C. for 1 hour. All wells of the plate were treated with 25 ul of ADP-Glo™ reagent and then allowed to react at 30° C. for 40 minutes. After that, all wells were treated with 50 ul of kinase detection buffer, and then allowed to react at 30° C. for 30 minutes under light shielding conditions. For the plate on which all reactions were completed, luminescence was measured and the results were calculated. Evaluation was carried out in duplicate, and negative control and positive control were calculated depending on whether or not the enzyme was added without treatment of the compound. The IC50 was calculated based on the calculated values.

T1 sequence (Q06187 whole entry): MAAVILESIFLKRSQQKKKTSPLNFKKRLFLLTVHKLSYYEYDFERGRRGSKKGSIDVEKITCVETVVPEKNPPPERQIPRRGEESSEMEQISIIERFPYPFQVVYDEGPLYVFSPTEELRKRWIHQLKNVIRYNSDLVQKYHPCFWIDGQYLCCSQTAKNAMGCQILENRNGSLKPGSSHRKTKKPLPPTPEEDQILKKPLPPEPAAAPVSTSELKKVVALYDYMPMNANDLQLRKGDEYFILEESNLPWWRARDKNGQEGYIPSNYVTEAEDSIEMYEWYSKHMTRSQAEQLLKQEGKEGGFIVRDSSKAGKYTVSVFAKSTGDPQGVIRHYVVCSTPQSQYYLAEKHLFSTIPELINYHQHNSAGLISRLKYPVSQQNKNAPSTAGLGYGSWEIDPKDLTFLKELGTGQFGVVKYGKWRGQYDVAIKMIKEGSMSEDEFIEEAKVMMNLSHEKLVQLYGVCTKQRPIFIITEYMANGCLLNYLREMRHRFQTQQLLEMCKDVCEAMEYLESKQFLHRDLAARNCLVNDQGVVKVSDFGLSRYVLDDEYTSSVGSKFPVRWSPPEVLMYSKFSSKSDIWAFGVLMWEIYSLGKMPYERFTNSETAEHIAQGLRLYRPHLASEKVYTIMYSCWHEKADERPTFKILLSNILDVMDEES

For `C=CC(=O)Nc1cccc(-c2cc(C)cc(Nc3ncc(C)s3)n2)c1` [Compound 26, N-(3-(4-methyl-6-((5-methylthiazol-2-yl)amino)pyridin-2-yl)phenyl)acrylamide], the IC50 was 10.5 nM on BTK and 76.4 nM on ITK.
With `C=CC(=O)Nc1cccc(-c2cc(CN3CCOCC3)cc(Nc3cc(C4CC4)[nH]n3)n2)c1` [Compound 27, N-(3-(6-((5-cyclopropyl-1H-pyrazol-3-yl)amino)-4-(morpholinomethyl)pyridin-2-yl)phenyl)acrylamide], the IC50 amounted to 68.7 nM at BTK and 36.9 nM at ITK.
On the same counts, the results for `C=CC(=O)Nc1cccc(-c2cc(C(=O)N3CCOCC3)cc(Nc3cc(C4CC4)[nH]n3)n2)c1` [Compound 28, N-(3-(6-(5-cyclopropyl-1H-pyrazol-3-ylamino)-4-(morpholine-4-carbonyl)pyridin-2-yl)phenyl)acrylamide] are 310 nM and 68.1 nM.
On the same counts, the results for `C=CC(=O)Nc1cccc(-c2cc(C(=O)N3CCOCC3)cc(Nc3ncc(C)s3)n2)c1` [Compound 29, N-(3-(6-((5-methylthiazol-2-yl)amino)-4-(morpholine-4-carbonyl)pyridin-2-yl)phenyl)acrylamide] are 5.2 nM and 18.6 nM.
Taken in the same sequence, the figures for `C=CC(=O)Nc1cccc(-c2cc(CN3CCOCC3)cc(Nc3ncc(C)s3)n2)c1` [Compound 30, N (3(6(5-methylthiazol-2-ylamino)-4-(morpholinomethyl)pyridin-2-yl)phenyl)acrylamide] were 3.1 nM and 4.3 nM.
`C=CC(=O)Nc1cccc(-c2cc(C(=O)N3CCOCC3)cc(Nc3cc(C)[nH]n3)n2)c1` [Compound 31, N-(3-(6-((5-methyl-1H-pyrazol-3-yl)amino)-4-(morpholine-4-carbonyl)pyridin-2-yl)phenyl)acrylamide]: the IC50 on BTK amounted to 17.6 nM; on ITK, 56.9 nM.
In the case of `C=CC(=O)Nc1cccc(-c2cc(CN3CCOCC3)cc(Nc3ncc(C(=O)Nc4c(C)cccc4Cl)s3)n2)c1` [Compound 33, 2-((6-(3-acrylamidophenyl)-4-(morpholinomethyl)pyridin-2-yl)amino)-N-(2-chloro-6-methylphenyl)thiazole-5-carboxamide], the IC50 was 1.9 nM at BTK and over 1000 nM on ITK.
Taken in the same sequence, the figures for `C=CC(=O)Nc1cccc(-c2cc(CN3CC(C)OC(C)C3)cc(Nc3ncc(C)s3)n2)c1` (centres unmarked) [Compound 34] were 2.4 nM and 3.1 nM.
On the same counts, the results for `C=CC(=O)Nc1cccc(-c2cc(N(C)C)cc(Nc3ncc(C)s3)n2)c1` [Compound 35, N-(3-(4-(dimethylamino)-6-((5-methylthiazol-2-yl)amino)pyridin-2-yl)phenyl)acrylamide] are over 400 nM and over 1000 nM.
On the same counts, the results for `C=CC(=O)Nc1cccc(-c2cc(N3CCOCC3)cc(Nc3ncc(C)s3)n2)c1` [Compound 36, N-(3-(6-((5-methylthiazol-2-yl)amino)-4-morpholinopyridin-2-yl)phenyl)acrylamide] are over 100 nM and 394 nM.
In the case of `C=CC(=O)Nc1cccc(-c2cc(CN3CCN(C)CC3)cc(Nc3ncc(C)s3)n2)c1` [Compound 37, N-(3-(4-((4-methylpiperazin-1-yl)methyl)-6-(5-methylthiazol-2-ylamino)pyridin-2-yl)phenyl)acrylamide], the IC50 was 0.9 nM on BTK and 5.5 nM on ITK.
Taken in the same sequence, the figures for `C/C=C/C(=O)Nc1cccc(-c2cc(Cc3ccccc3)cc(Nc3cc(C)[nH]n3)n2)c1` [Compound 38, (E)-N-(3-(4-benzyl-6-(5-methyl-1H-pyrazol-3-ylamino)pyridin-2-yl)phenyl)but-2-enamide] were over 400 nM and 536 nM.
Take `C=CC(=O)Nc1cccc(-c2cc(CN3CCOCC3)cc(Nc3nnc(C)s3)n2)c1` [Compound 39, N-(3-(6-(5-methyl-1,3,4-thiadiazol-2-ylamino)-4-(morpholinomethyl)pyridin-2-yl)phenyl)acrylamide]: the IC50 at BTK is 252 nM; at ITK it was over 1000 nM.
Taken in the same sequence, the figures for `C=CC(=O)Nc1cccc(-c2cc(CN3CCOCC3)cc(Nc3cc(C)on3)n2)c1` [Compound 40, N-(3-(6-((5-methylisoxazol-3-ylamino)-4-(morpholino)methyl)pyridin-2-yl)phenyl)acrylamide] were over 400 nM and over 1000 nM.
Take `C=CC(=O)Nc1cccc(-c2cc(CN3CCOCC3)cc(Nc3nnc(C)o3)n2)c1` [Compound 41, N-(3-(6-((5-methyl-1,3,4-oxadiazol-2-yl)amino)-4-(morpholinomethyl)pyridin-2-yl)phenyl)acrylamide]: the IC50 at BTK was over 400 nM; at ITK it was over 1000 nM.
On the same counts, the results for `C=CC(=O)Nc1cccc(-c2cc(CN3CCOCC3)cc(NC(=O)C3CC3)n2)c1` [Compound 42, N-(6-(3-acrylamidophenyl)-4-(morpholinomethyl)pyridin-2-yl)cyclopropanecarboxamide] are over 400 nM and over 1000 nM.
With `C=CC(=O)Nc1cccc(-c2cc(CN3CCN(CCO)CC3)cc(Nc3ncc(C)s3)n2)c1` [Compound 43, N-(3-(4-((4-(2-hydroxyethyl)piperazin-1-yl)methyl)-6-(5-methylthiazol-2-ylamino)pyridin-2-yl)phenyl)acrylamide], the IC50 amounted to 2.3 nM at BTK and 2.1 nM at ITK.
As to `C=CC(=O)Nc1cccc(-c2cc(CN3CCOCC3)cc(Nc3ncns3)n2)c1` [Compound 44, N-(3-(6-((1,2,4-thiadiazol-5-yl)amino)-4-(morpholinomethyl)pyridin-2-yl)phenyl)acrylamide], the IC50 stood at 2 nM on BTK and 12 nM at ITK.
Taken in the same sequence, the figures for `C=CC(=O)Nc1cccc(-c2cc(CN3CCN(C4CC4)CC3)cc(Nc3ncc(C)s3)n2)c1` [Compound 45, N-(3-(4-((4-cyclopropylpiperazin-1-yl)methyl)-6-((5-methylthiazol-2-yl)amino)pyridin-2-yl)phenyl)acrylamide] were 3 nM and 2.1 nM.
Taken in the same sequence, the figures for `C=CC(=O)Nc1cccc(-c2cc(CN3C[C@@H](C)O[C@@H](C)C3)cc(Nc3ncc(C)s3)n2)c1` [Compound 46, N-(3-(4-(((2S,6R)-2,6-dimethylmorpholino)methyl)-6-(5-methylthiazol-2-ylamino)pyridin-2-yl)phenyl)acrylamide] were 1.7 nM and 1.6 nM.
Taken in the same sequence, the figures for `C=CC(=O)Nc1cccc(-c2cc(CN3CCCC3)cc(Nc3ncc(C)s3)n2)c1` [Compound 47, N-(3-(6-((5-methylthiazol-2-yl)amino)-4-(pyrrolidin-1-ylmethyl)pyridin-2-yl)phenyl)acrylamide] were 3 nM and 8.2 nM.
In the case of `C=CC(=O)Nc1cccc(-c2cc(CN3CCN(CCC)CC3)cc(Nc3ncc(C)s3)n2)c1` [Compound 48, N-(3-(6-((5-methylthiazol-2-yl)amino)-4-((4-propylpiperazin-1-yl)methyl)pyridin-2-yl)phenyl)acrylamide], the half-inhibitory concentration (IC50) at BTK amounted to 1.1 nM; at ITK, 4.3 nM.

The values are drawn from patent US11149019B2, “Phenylpyridine derivative and pharmaceutical composition comprising the same” (Daewoong Pharmaceutical Co., Ltd., priority 2017, dated 2021).
